Assay results taken from ChEMBL document CHEMBL1132837, “3-(4-Piperidinyl)- and 3-(8-aza-bicyclo[3.2.1]oct-3-yl)-2-phenyl-1H-indoles as bioavailable h5-HT2A antagonists” (Bioorg Med Chem Lett, 2000).

Tests used:
[1] = target: Dopamine D2 receptor and serotonin 2a receptor (Homo sapiens) (UniProt P14416+P28223); experiment: Selectivity as ratio of Ki against human dopamine D2 and 5-HT2A receptors; format: protein assay
[2] = target: Serotonin 2 receptors; 5-HT2a & 5-HT2c (Homo sapiens) (UniProt P28223+P28335); experiment: Selectivity as ratio of Ki against human 5-HT2C and 5-HT2A receptors; format: protein assay
Chain of Serotonin 2 receptors; 5-HT2a & 5-HT2c (Homo sapiens) (P28223 whole entry, looked up): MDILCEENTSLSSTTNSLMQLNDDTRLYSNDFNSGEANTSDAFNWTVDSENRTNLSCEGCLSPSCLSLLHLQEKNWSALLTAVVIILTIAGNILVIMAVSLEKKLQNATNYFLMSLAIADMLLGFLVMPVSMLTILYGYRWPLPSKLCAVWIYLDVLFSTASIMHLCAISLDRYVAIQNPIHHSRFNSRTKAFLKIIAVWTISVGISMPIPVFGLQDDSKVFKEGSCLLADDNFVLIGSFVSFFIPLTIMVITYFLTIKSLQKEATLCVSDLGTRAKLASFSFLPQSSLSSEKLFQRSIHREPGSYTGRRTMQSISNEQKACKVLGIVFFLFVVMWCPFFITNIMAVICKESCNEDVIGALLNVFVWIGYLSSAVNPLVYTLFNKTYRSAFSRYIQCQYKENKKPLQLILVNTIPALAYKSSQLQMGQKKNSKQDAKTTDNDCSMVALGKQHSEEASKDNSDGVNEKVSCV
Chain of Serotonin 2 receptors; 5-HT2a & 5-HT2c (Homo sapiens) (P28335 whole entry, looked up): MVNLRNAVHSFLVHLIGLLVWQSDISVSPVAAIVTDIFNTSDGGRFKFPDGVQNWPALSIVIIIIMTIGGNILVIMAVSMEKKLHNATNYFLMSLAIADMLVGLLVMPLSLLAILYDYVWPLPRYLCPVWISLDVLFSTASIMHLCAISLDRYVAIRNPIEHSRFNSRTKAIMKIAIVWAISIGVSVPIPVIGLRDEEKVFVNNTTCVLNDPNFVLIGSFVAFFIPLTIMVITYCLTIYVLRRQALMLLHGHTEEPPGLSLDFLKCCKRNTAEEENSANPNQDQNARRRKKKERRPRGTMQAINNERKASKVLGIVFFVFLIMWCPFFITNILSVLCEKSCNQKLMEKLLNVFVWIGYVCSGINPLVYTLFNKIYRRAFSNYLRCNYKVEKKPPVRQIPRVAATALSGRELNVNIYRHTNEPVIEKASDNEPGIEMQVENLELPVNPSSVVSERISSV

[3] = Oral bioavailability in rat; format: ADME, organism-based; settings: in vivo
[4] = target: 5-hydroxytryptamine receptor 2A (Homo sapiens, UniProt P28223); experiment: Displacement of [3H]ketanserin from human 5-hydroxytryptamine 2A receptor expressed in CHO cells; format: cell-based
Chain of 5-hydroxytryptamine receptor 2A (P28223 whole entry): as the sequence (P28223 whole entry, looked up) above

[5] = Oral bioavailability was determined in dogs; format: ADME, organism-based, Canis lupus familiaris; settings: dog, in vivo, read-out: Bioavailabiility

Chain of Dopamine D2 receptor and serotonin 2a receptor (Homo sapiens) (P14416 whole entry, looked up): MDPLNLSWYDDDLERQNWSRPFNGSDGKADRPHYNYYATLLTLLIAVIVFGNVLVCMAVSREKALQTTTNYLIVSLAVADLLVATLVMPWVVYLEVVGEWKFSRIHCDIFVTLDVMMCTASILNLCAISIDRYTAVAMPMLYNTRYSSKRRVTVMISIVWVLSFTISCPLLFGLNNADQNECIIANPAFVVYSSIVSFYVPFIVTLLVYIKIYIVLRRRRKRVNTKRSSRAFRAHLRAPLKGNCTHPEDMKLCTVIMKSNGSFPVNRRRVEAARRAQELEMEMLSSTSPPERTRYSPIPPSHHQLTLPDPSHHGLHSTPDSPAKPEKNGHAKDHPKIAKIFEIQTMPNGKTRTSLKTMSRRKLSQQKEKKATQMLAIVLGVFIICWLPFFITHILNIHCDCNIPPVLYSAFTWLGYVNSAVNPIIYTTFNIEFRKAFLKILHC
Chain of Dopamine D2 receptor and serotonin 2a receptor (Homo sapiens) (P28223 whole entry, looked up): as the sequence (P28223 whole entry, looked up) above

SMILES | Ratio [1] | Ratio [2] | bioavailability [3] [%] | Ki [4] [nM] | bioavailability [5] [%]
c1ccc(CCN2C3CCC2CC(N2CCC(c4c(-c5ccccc5)[nH]c5ccccc45)CC2)C3)cc1 (stereo in doubt; 17) [listing 1 of 2 here] | 1080 | 860 | – | – | –
c1ccc(CCN2C3CCC2CC(N2CCC(c4c(-c5ccccc5)[nH]c5ccccc45)CC2)C3)cc1 (stereo in doubt; 17) [listing 2 of 2 here] | – | – | 18 | 1.2 | –
CN1CCC(c2c(-c3ccccc3)[nH]c3ccccc23)CC1 | 205 | 30 | – | 7.8 | –
c1ccc(CCN2C3CCC2CC(N2CCC(c4c(-c5ccccc5)[nH]c5ccccc45)CC2)C3)cc1 (stereo in doubt; 18) [listing 1 of 2 here] | 170 | 60 | – | – | –
O=C1NCCN1CCN1CCC(c2c(-c3ccccc3)[nH]c3ccccc23)CC1 | 250 | 160 | 40 | 7.3 | 33
c1ccc(CCN2C3CCC2CC(N2CCC(c4c(-c5ccccc5)[nH]c5ccccc45)CC2)C3)cc1 (stereo in doubt; 18) [listing 2 of 2 here] | – | – | – | 2.6 | –
CN1[C@@H]2CC[C@H]1C[C@H](N1CCC(c3c(-c4ccccc4)[nH]c4ccccc34)CC1)C2 (stereo in doubt; 15) [listing 1 of 2 here] | 960 | 45 | – | – | –
c1ccc(-c2[nH]c3ccccc3c2CCN2CCCCC2)cc1 | 330 | 100 | < 5 | – | –
CN1[C@@H]2CC[C@H]1C[C@H](N1CCC(c3c(-c4ccccc4)[nH]c4ccccc34)CC1)C2 (stereo in doubt; 13) [listing 1 of 2 here] | – | – | – | 1.1 | –
CN1[C@@H]2CC[C@H]1C[C@H](N1CCC(c3c(-c4ccccc4)[nH]c4ccccc34)CC1)C2 (stereo in doubt; 15) [listing 2 of 2 here] | – | – | – | 1.5 | –
c1ccc(CN2CCC(c3c(-c4ccccc4)[nH]c4ccccc34)CC2)cc1 | 2 | 30 | – | 28 | –
CN1[C@@H]2CC[C@H]1C[C@H](N1CCC(c3c(-c4ccccc4)[nH]c4ccccc34)CC1)C2 (stereo in doubt; 13) [listing 2 of 2 here] | 1190 | 70 | – | – | –
c1ccc(-c2[nH]c3ccccc3c2C2CCNCC2)cc1 | 130 | 30 | – | 12.1 | –
c1ccc(CCN2CCC(c3c(-c4ccccc4)[nH]c4ccccc34)CC2)cc1 | 690 | 160 | 12 | 0.5 | –
c1ccc(-c2[nH]c3ccccc3c2C2CC3CCC(C2)N3)cc1 (configuration not stated) | 1060 | 200 | – | 1.8 | –
